Results published in paper PMC8989696, “Characterization of furathiocarb metabolism in in-vitro human liver microsomes and recombinant cytochrome P450 enzymes” (Toxicology Reports, 2022).
Marks after values point to notes of the source that are not given here.

How the values were obtained:
Format in all cases: in vitro ADME
[1] = Correlation of furathiocarb metabolite formation with model CYP substrate activities in ten human hepatic microsomes; settings: 20 min, n = 10; for Linear correlation coefficient, Carbofuran metabolic pathway: 50 μM furathiocarb
Description: A set of ten livers was used to assess the metabolism of furathiocarb in the individual livers as well as to correlate the activities with a model CYP substrate. (Detailed information is available as Supplementary materials).
(§1) The kinetic parameters Vmax and Km were calculated by nonlinear regression. Bivariate linear Pearson’s correlation coefﬁcients (r2) were calculated between metabolite formations and model activities in the livers. GraphPad Prism 9 Software (Inc., San Diego, CA) Prism 9.0.0 (San Diego, CA) was used for kinetic parameters and correlation coefﬁcients analysis. The IC50 values were determined by linear regression analysis using OriginPro 2020 (MicroCal Software, Inc., Northampton, MA.
Metabolites of bupropion, amodiaquine, tolbutamide, omeprazole, dextromethorphan, chlorzoxazone, and midazolam were analyzed by a Shimadzu VP series high-performance liquid chromatograph with an autoinjector (Shimadzu, Kyoto, Japan). The analytical column was a Waters Symmetry C18 (3.9 mm x 150 mm, particle size of 5 µm) together with a Lichospher 100 RP-18 4.0 mm x 4.0 mm precolumn (Merck, Darmstadt, Germany). Chromatographic methods were isocratic, except in the case of omeprazole when a linear gradient elution from 15 to 35% A in 8 min was used. Mobile phases were pumped at a flow rate of 1.0 ml/min. The injection volume used was 20 µl. The concentrations of metabolites were calculated from peak height ratios of the UV chromatograms on the basis of standard calibration curves of authentic metabolites. Metabolites of ethoxyresorufin, ethoxycoumarin, coumarin, and pentoxyresorufin were analyzed fluorometrically. […] Fresh […] dilutions from stock solution of DMSO were used for each assay. The final amount of DMSO was 1% in incubation mixtures. For chlorzoxazone 6-hydroxylation the solvent was evaporated because of the potent inhibition effect of DMSO on CYP2E1, and the residue was diluted with 10 µl of lipid solution. Lipid solution was prepared by adding 8 µl of dimethyldioctadecylammonium-bromide in chloroform (100 mg/ml) to 200 µl L-α-phosphatidylethanolamine dioleyl [C18:1 (cis)-9] in chloroform. This mixture was evaporated with a stream of nitrogen flow, 2 ml of water was added, and the final mixture was sonicated (Branson Sonifier 250 GWB) on an ice bath for 10 min by using 50% power.
Cytochrome P450 enzyme activity characterizations as well as incubations with individual human hepatic microsomes were performed at the same time. A bank of 10 livers was used to assess the metabolism of furathiocarb in individual livers as well as to correlate the activities with model P450 substrate activities. A correlation was performed between the formation of furathiocarb metabolites and each CYP activity across the human liver set. For all data points the mean of duplicate incubations were used. […] Bivariate linear Pearson’s correlation coefficients (r) were calculated between metabolite formations and model activities in livers. […]

[2] = molecular target: T1, CYP2C9 (Homo sapiens, UniProt P11712); experiment: N-in-one CYP inhibition assay, pooled human hepatic microsomes, CYP2C9 (OH-TOL)
T1 construct: from tissue; host or cells: pooled human liver microsomes (n = 10 donors)
T1 sequence (P11712 whole entry): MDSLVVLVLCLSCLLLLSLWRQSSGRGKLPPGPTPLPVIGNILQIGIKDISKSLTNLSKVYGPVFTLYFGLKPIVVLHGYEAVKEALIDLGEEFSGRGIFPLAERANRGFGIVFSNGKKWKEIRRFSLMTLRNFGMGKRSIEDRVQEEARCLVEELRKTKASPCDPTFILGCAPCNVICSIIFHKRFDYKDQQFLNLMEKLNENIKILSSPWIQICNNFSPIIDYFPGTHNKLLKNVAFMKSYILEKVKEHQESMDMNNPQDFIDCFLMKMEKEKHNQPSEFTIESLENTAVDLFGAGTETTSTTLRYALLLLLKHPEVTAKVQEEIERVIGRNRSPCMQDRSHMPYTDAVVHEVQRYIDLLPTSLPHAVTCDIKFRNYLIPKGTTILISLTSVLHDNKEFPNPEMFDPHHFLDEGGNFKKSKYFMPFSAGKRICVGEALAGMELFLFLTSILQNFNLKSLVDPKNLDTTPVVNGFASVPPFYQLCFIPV
Description: (§2) N-in-one (“cocktail”) assay for measuring major CYP activities simultaneously, [55], [56] was employed to investigate human CYP-furathiocarb inhibitory interactions in pooled human hepatic microsomes. Furathiocarb (ﬁnal concentrations in the incubation mixture were 1, 5, 25, 50, and 100 µM) was added to the incubation mixture. The N-in-one was used earlier for the study of pesticide interactions and the details of the incubations with furathiocarb are described in Supplementary materials.
as §1
(§3) N-in-one assay was performed to investigate human CYP-furathiocarb inhibitory interactions. Furathiocarb (ﬁnal concentrations in the incubation mixture were 1, 5, 25, 50, and 100 µM) was added to the incubation mixture.
(§4) The N-in-one assay, analytical method and authentic standards have been described previously (Abass and Pelkonen 2013; Tolonen et al. 2007; Turpeinen et al. 2005). […]

[3] = tested on: human CYP activities other than CYP1A2, CYP2B6, CYP2C9, CYP2C19; experiment: N-in-one CYP inhibition assay, pooled human hepatic microsomes, other CYP activities; settings: pooled human liver microsomes (n = 10), pH 7.4, furathiocarb 1–100 µM, read-out: Other IC50 values (remaining CYP activities of N-in-one assay)
Description: as §2, §1, §3, §4

[4] = tested on: UDP-glucuronosyl transferase (UGT); experiment: Incubation with human hepatic homogenate fortified with UDP-glucuronic acid (phase II metabolites); settings: data not illustrated
[5] = molecular target: T2, CYP2B6 (Homo sapiens, UniProt P20813); experiment: biochemical; parameters: from tissue; host or cells: pooled human liver microsomes (n = 10 donors)
T2 sequence (P20813 1-491): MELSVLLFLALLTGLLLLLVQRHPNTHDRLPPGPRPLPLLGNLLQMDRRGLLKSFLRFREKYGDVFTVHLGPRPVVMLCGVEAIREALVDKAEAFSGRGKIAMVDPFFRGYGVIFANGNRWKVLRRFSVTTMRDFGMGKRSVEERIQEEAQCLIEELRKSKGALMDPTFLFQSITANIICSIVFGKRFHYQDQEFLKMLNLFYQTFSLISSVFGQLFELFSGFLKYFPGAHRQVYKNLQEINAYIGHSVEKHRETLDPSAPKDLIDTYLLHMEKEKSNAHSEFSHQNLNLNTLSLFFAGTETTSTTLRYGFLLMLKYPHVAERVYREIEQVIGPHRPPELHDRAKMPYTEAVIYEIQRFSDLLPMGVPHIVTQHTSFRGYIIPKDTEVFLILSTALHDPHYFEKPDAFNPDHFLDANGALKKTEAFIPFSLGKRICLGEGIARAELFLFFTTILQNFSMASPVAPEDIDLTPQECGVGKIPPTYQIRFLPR
Description: as §2, §1, §3, §4

## CCCCOC(=O)N(C)SN(C)C(=O)Oc1cccc2c1OC(C)(C)C2 [furathiocarb, Furathiocarb]
[1]; vs CYP1A1/2 7-Ethoxyresorufin-O-deethylation (EROD)
  Linear correlation coefficient, Carbofuran metabolic pathway: 0.2493
[1]; vs CYP2A6 Coumarin-7-hydroxylation (OH-COU)
  Linear correlation coefficient, Carbofuran metabolic pathway: 0.2303
[1]; vs CYP2A6 Coumarin-7-hydroxylation (OH-COU), 100 μM furathiocarb
  Linear correlation coefficient, -OH/SO4 furathiocarb Metabolite B: 0.1259
[1]; vs CYP2B6 Bupropion hydroxylation (OH-BUP)
  Linear correlation coefficient, Carbofuran metabolic pathway: 0.0023
[1]; vs CYP2C8 Amodiaquine-desethylation (deEt-AMO)
  Linear correlation coefficient, Carbofuran metabolic pathway: 0.1814
[1]; vs CYP2C9 Tolbutamide hydroxylation (OH-TOL)
  Linear correlation coefficient, Carbofuran metabolic pathway: 0.1126
[1]; vs CYP2C19 Omeprazole-5-hydroxylation (5-OH-OME), P < 0.0001
  Linear correlation coefficient, Carbofuran metabolic pathway: 0.9074 **
[1]; vs CYP2C19 Omeprazole-5-hydroxylation (5-OH-OME), 100 μM furathiocarb
  Linear correlation coefficient, -OH/SO4 furathiocarb Metabolite A: 0.4683
[1]; vs CYP2D6 Dextromethorphan-O-desmethylation (O-dem-DEX)
  Linear correlation coefficient, Carbofuran metabolic pathway: 0.0059
[1]; vs CYP2E1 Chlorzoxazone-6-hydroxylation (OH-CLZ)
  Linear correlation coefficient, Carbofuran metabolic pathway: 0.1101
[1]; vs CYP3A4 Midazolam-1'-hydroxylation (1-OH-MDZ), P = 0.0001
  Linear correlation coefficient, Carbofuran metabolic pathway: 0.8513 *
[1]; vs CYP3A4 Midazolam-1'-hydroxylation (1-OH-MDZ), 100 μM furathiocarb
  Linear correlation coefficient, -OH/SO4 furathiocarb Metabolite B: 0.3282
[1]; vs CYP3A4 Omeprazole sulfoxidation (SO2-OME), P < 0.0001
  Linear correlation coefficient, Carbofuran metabolic pathway: 0.9632 **
[1]; vs CYP3A4 Omeprazole sulfoxidation (SO2-OME), 100 μM furathiocarb
  Linear correlation coefficient, -OH/SO4 furathiocarb Metabolite B: 0.2793
[2]
  IC50: 16.5 to 18.5 µM
[3]
  IC50 at 20 min: > 100 µM
[4]
  Phase II metabolites: no phase II metabolites were detected
[5]
  IC50: 16.5 to 18.5 µM
